# According to patent US10633429B2, “Human antibody κ type light chain complex-containing composition and method for producing same” (JAPAN SCIENCE AND TECHNOLOGY AGENCY, priority 2013, dated 2020):
# Columns and labels:
# Type in all cases: cell-based
# [1] = system: A549 cell line (human alveolar epithelial cancer cell line); assay: Cytotoxicity assay (WST assay), A549 cell line; settings: Example 5; C51 incubated with metal ions 4 μM or cisplatin 4 μM; 24 hours; PBS set to 100%
# Protocol: (§1) The cytotoxicity of each complex-containing composition to cancer cells was tested using cancer cell lines. As the cancer cell lines, A549 cell line (human alveolar epithelial cancer cell line), ES-2 cell line (human ovarian cancer cell line), MOLT-4 cell line (human acute lymphoblastic leukemia T cell line), BxPC-3 cell line (human pancreatic adenocarcinoma cell line), SNU-1 cell line (human metastatic gastric cancer cell line), and PANC-1 cell line (human pancreatic cancer cell line) were used.
# (§2) All of these cell lines were purchased from ATCC (American Type Culture Collection). […]
# First, after being recovered by thawing the frozen cancer cell lines, the recovered cancer cell lines were seeded in a 96-well plate by 100 μL to be 5×10^3 cells/well (the number of seeds was appropriately adjusted by cell species). […] After culturing was carried out for 24 hours or 48 hours from the addition of the complex-containing composition (after cells are planted and cultivated for 48 hours or 72 hours), a WST-1 reagent (manufactured by Roche Inc.) was added to each well by 10 μL and incubated for 1, 1.5, and 2 hours to form a formazan dye, and then the absorbance (Abs at 450 nm) of the formazan dye was measured (WST assay). […]
# [2] = system: SNU-1 cell line (human metastatic gastric cancer cell line); assay: Cytotoxicity assay (WST assay), SNU-1 cell line
# Protocol: as §1
# (§3) All of these cell lines were purchased from ATCC (American Type Culture Collection). Here, the A549 cell line was cultured using a 10% FCS (fetal calf serum)-containing F-12K culture medium by a general method, the ES-2 cell line was cultured using a 10% FCS-containing McCoy's 5A culture medium by a general method, each of the MOLT-4 cell line, SNU-1 cell line, and BxPC-3 cell line was cultured using a 10% FCS-containing RPMI-1640 culture medium by a general method, the PANC-1 cell line was cultured using a 10% FCS-containing DMEM culture medium by a general method, and the WI-38 cell line was cultured using a 10% FCS-containing EMEM culture medium by a general method.
# (§4) First, after being recovered by thawing the frozen cancer cell lines, the recovered cancer cell lines were seeded in a 96-well plate by 100 μL to be 5×10^3 cells/well (the number of seeds was appropriately adjusted by cell species). After culturing was carried out at 37° C. for 24 hours, a culture medium to be added to the 96-well plate was removed by decantation, and then each complex-containing composition prepared at a concentration of about 1 mg/mL was added to each well by 100 μL. After culturing was carried out for 24 hours or 48 hours from the addition of the complex-containing composition (after cells are planted and cultivated for 48 hours or 72 hours), a WST-1 reagent (manufactured by Roche Inc.) was added to each well by 10 μL and incubated for 1, 1.5, and 2 hours to form a formazan dye, and then the absorbance (Abs at 450 nm) of the formazan dye was measured (WST assay). As a control, a human antibody κ type light chain not bound to metal ions or PBS was added instead of the complex-containing composition and cultured for 24 hours or 48 hours, and then WST assay was carried out. Based on the results of the obtained absorbance, the cell survival rate of the well added with the human antibody κ type light chain not bound to metal ions or the well added with the PBS was set to 100%, and the cell survival rate of each well was determined, so as to evaluate the cytotoxicity of the added complex-containing composition.
# [3] = system: PANC-1 cell line (human pancreatic cancer cell line); assay: Cytotoxicity assay (WST assay), PANC-1 cell line; settings: Example 2, Fr. 3B set to 100%
# Protocol: as §1, §3
# as §4, with “After culturing was carried out at 37° C. for 24 hours, a culture medium to be added to the 96-well plate was removed by decantation, and then each complex-containing composition prepared at a concentration of about 1 mg/mL was added to each well by 100 μL.” left out
# [4] = system: WI-38 cell line (human fetal lung fibroblast cell line); assay: Cytotoxicity assay (WST assay), WI-38 control cell line; settings: Example 5; cisplatin 4.2 μM; 24 hours; PBS set to 100%
# Protocol: In addition, as a control, WI-38 cell line (human fetal lung fibroblast cell line) was also used.
# as §2
# as §4, with “After culturing was carried out at 37° C. for 24 hours, a culture medium to be added to the 96-well plate was removed by decantation, and then each complex-containing composition prepared at a concentration of about 1 mg/mL was added to each well by 100 μL.” left out, “As a control, a human antibody κ type light chain not bound to metal ions or PBS was added instead of the complex-containing composition and cultured for 24 hours or 48 hours, and then WST assay was carried out.” left out
# [5] = Example 2, #7_wt fractions 4 μM (100 μg/mL) or cisplatin 4 μM, Fr. 3B set to 100%
# [6] = Example 2, cisplatin 33 μM, Fr. 3B set to 100%
# [7] = #7_wt fractions 4 μM (100 μg/mL) or cisplatin 4 μM
smiles,measurement,setting,value
"N.N.[Cl][Pt][Cl] [Cisplatin, cisplatin]",Relative cell survival rate,[1],about 60%
same,"Relative cell survival rate, SNU-1 cell line, 24 h",[2]; [5],85.0%
same,"Relative cell survival rate, SNU-1 cell line, 48 h",[2]; [5],32.5%
same,"Relative cell survival rate, SNU-1 cell line, 24 h",[2]; [6],32.0%
same,"Relative cell survival rate, SNU-1 cell line, 48 h",[2]; [6],5.8%
same,"Relative cell survival rate, SNU-1 cell line, 24 h","[2]; Example 3, cisplatin 4 μM, Fr. 3B (#7_C219A) set to 100%",89.5%
same,"Relative cell survival rate, PANC-1 cell line, 24 h",[3]; [7],109.3%
same,"Relative cell survival rate, PANC-1 cell line, 48 h",[3]; [7],82.1%
same,"Relative cell survival rate, PANC-1 cell line, 24 h",[3]; cisplatin 33 μM,60.3%
same,"Relative cell survival rate, PANC-1 cell line, 48 h",[3]; cisplatin 33 μM,9.6%
same,Relative cell survival rate,[4],40%
